Experimental data taken from patent US6103888A, “Mammalian cationic proteins having lipopolysaccharide binding and anti-coagulant activity” (priority 1999, dated 2000).
pIC50: −log10 of the molar value.

Assays:
[1] = test system: Salmonella minnesota ReLPS sensitized sheep erythrocytes; test: LPS hemagglutination assay (MAC); type: binding
human monocytes = test: TNF release from LPS and IFNγ stimulated monocytes; type: cell-based
E. coli O9:K39 K+ strain = test: Antibacterial CFU assay
E. coli 055:B5 LPS = test: Inhibition of RNIP-mediated hemagglutination by LPS preparation; type: binding; settings: Peptide #36-1 16 μg/ml, RNIP (#197) 25 μg/ml preincubated with LPS 37° 30 minutes
Method: (§1) For hemagglutination assays, erythrocytes were sensitized with LPS as follows. One ml of 1% erythrocyte suspension (human 0 type, C3H/HeN mouse or sheep) was mixed with 0.2 ml of LPS solution and incubated at 37° C. for 30 min, followed by washing with phosphate buffered saline (PBS), and then the concentration of suspension was adjusted to 1.0%. In the case of S-LPS, the solution was heated at 100° C. for 1 hour before sensitization of erythrocytes. […] Activity of CAP was expressed as a minimum agglutinating concentration (MAC) of CAP. According to the method of Kirikae et al. (1986) Microbiol. Immunol. 30:269-274, 50 μl of 2-fold serial dilution of Re-LPS was added to 50 μl of 1.0% rabbit erythrocyte suspension, and incubated at 37° C. for 3 hour. Minimum agglutinating concentration of Re-LPS was expressed as 1 HA unit.
(§2) Another series of experiments was performed to determine if the #36-1 and #197 (RNIP) peptides were capable of binding to LPS from various species of Gram-negative bacteria. For these experiments, sheep red blood cells were sensitized with Salmonella minnesota Re-LPS. Peptides #36-1 and #197 (RNIP) were preincubated with various preparations of LPS. Both peptides bind to a diverse group of lipopolysaccharides.
(§3) +Peptide #361 (16 μg/ml) and RNIP (#197) (25 μg/ml) were
(§4) preincubated with each LPS preparation at 37° for 30 minutes, and
(§5) each reaction mixture was added to sheep erythrocytes sensitized with […]

E. coli 0127:B8 LPS = test: as above; type: binding; settings: Peptide #36-1 16 μg/ml, RNIP (#197) 25 μg/ml preincubated with LPS 37° 30 minutes
Method: as §1, §2, §3, §4, §5

[2] = test system: Pseudomonas aeruginosa F-D Type I LPS; test: as above; type: binding; settings: Peptide #36-1 16 μg/ml, RNIP (#197) 25 μg/ml preincubated with LPS 37° 30 minutes
Method: as §1, §2, §3, §4, §5

[3] = test system: Salmonella minnesota R595 LPS; test: as above; type: binding; settings: Peptide #36-1 16 μg/ml, RNIP (#197) 25 μg/ml preincubated with LPS 37° 30 minutes
Method: as §1, §2, §3, §4, §5

E. coli 0111:B4 LPS = test: as above; type: binding; settings: Peptide #36-1 16 μg/ml, RNIP (#197) 25 μg/ml preincubated with LPS 37° 30 minutes
Method: as §1, §2, §3, §4, §5

[4] = test system: Klebsiella pneumoniae LPS; test: as above; type: binding; settings: Peptide #36-1 16 μg/ml, RNIP (#197) 25 μg/ml preincubated with LPS 37° 30 minutes
Method: as §1, §2, §3, §4, §5

E. coli J5 LPS = test: as above; type: binding; settings: Peptide #36-1 16 μg/ml, RNIP (#197) 25 μg/ml preincubated with LPS 37° 30 minutes
Method: as §1, §2, §3, §4, §5

Substance: RNIP: rabbit reactive nitrogen inhibitory protein, amino acids 135-171 of SEQ ID NO:4; purified from granulocytes (Tables 1-3) or synthetic (#197) (GLRKRLRKFRNKIKEKLKKIGQKIQGLLPKLAPRTDY)
- Hemagglutination [MAC], minimum agglutinating concentration [1]: 7.9 µg/mL
- TNF (human monocytes; Human IFNγ (100 U), CAP (1:1), stimulus alone 2.0): 0.27 ng/mL
- TNF (human monocytes; Human IFNγ (100 U), CAP (1:10), stimulus alone 2.0): 0.35 ng/mL
- TNF (human monocytes; Human IFNγ (100 U), CAP (1:100), stimulus alone 2.0): 0.35 ng/mL
- TNF (human monocytes; LPS (10 ng/ml), CAP (1:1), stimulus alone 1.0): 0.12 ng/mL
- TNF (human monocytes; LPS (10 ng/ml), CAP (1:10), stimulus alone 1.0): 0.34 ng/mL
- TNF (human monocytes; LPS (10 ng/ml), CAP (1:100), stimulus alone 1.0): 0.23 ng/mL
- IC50, anti-bacterial activity (E. coli O9:K39 K+ strain): 0.14 µg/mL
- pIC50 (E. coli O9:K39 K+ strain; read-out: IC50, anti-bacterial activity): 7.70
- MIC, minimal inhibitory concentration of LPS (E. coli 055:B5 LPS): 62.5 µg/mL
- MIC, minimal inhibitory concentration of LPS (E. coli 0127:B8 LPS): 62.5 µg/mL
- MIC, minimal inhibitory concentration of LPS [2]: 15.6 µg/mL
- MIC, minimal inhibitory concentration of LPS [3]: 62.5 µg/mL
- MIC, minimal inhibitory concentration of LPS (E. coli 0111:B4 LPS): 31.3 µg/mL
- MIC, minimal inhibitory concentration of LPS [4]: 62.5 µg/mL
- MIC, minimal inhibitory concentration of LPS (E. coli J5 LPS): 15.6 µg/mL
